Experiments:
JAK2 = JAK2 (Homo sapiens (Human), UniProt O60674); assay: Jak Biochemical HTRF Assay, JAK2; details: HTRF biochemical assay, GST-tagged catalytic domain; top concentration tested […]
Text: (§1) Jak Biochemical HTRF Assay Protocol
(§2) Subsequent reagent additions employed an Agilent Bravo.

JAK1 = JAK1 (Homo sapiens (Human), UniProt P23458); assay: Jak Biochemical HTRF Assay, JAK1; details: HTRF biochemical assay, GST-tagged catalytic domain; top concentration tested […]; read-out: JAK1 IC50
JAK1, sequence (P23458 875-1153): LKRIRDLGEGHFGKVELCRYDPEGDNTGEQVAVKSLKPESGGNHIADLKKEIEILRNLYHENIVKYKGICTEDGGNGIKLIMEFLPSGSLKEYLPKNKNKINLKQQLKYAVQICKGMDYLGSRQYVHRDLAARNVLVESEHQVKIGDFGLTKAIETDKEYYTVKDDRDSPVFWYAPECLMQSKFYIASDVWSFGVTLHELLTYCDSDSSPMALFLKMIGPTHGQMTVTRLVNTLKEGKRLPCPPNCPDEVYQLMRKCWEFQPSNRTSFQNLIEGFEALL
Text: as §1, §2

JAK2, sequence (O60674 849-1124): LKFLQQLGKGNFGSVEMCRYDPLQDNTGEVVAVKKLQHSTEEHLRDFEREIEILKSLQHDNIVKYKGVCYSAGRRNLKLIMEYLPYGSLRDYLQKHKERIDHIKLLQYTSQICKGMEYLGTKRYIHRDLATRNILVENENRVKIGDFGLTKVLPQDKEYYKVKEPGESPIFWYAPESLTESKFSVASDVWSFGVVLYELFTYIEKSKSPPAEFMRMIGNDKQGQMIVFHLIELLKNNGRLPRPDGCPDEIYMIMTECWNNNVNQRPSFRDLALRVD

IC50 (JAK2)	IC50 (JAK1)	Structure (SMILES)
8 nM	0.2 nM	N#CCC1(n2cc(C(N)=O)c(Nc3ccnc(F)c3)n2)CCN(C(=O)OCC(F)(F)F)CC1 [Example 30-1, 2,2,2-Trifluoroethyl 4-{4-carbamoyl-3-[(2-fluoropyridin-4-yl)amino]-1H-pyrazol-1-yl}-4-(cyanomethyl)piperidine-1-carboxylate]
87 nM	4 nM	N#CCC1(n2cc(C(N)=O)c(Nc3ccc(F)cc3)n2)CCN(Cc2ccnc3[nH]ccc23)CC1 [Example 22-53, 1-[4-(cyanomethyl)-1-(1H-pyrrolo[2,3-b]pyridin-4-ylmethyl)piperidin-4-yl]-3-[(4-fluorophenyl)amino]-1H-pyrazole-4-carboxamide]
238 nM	10 nM	Cn1c(C(=O)N2CCC(CC#N)(n3cc(C(N)=O)c(Nc4ccccc4)n3)CC2)cc2ccccc21 [Example 34-26, 1-{4-(cyanomethyl)-1-[(1-methyl-1H-indol-2-yl)carbonyl]piperidin-4-yl}-3-(phenylamino)-1H-pyrazole-4-carboxamide]
158 nM	10 nM	N#CCC1(n2cc(C(N)=O)c(Nc3ccccc3)n2)CCN(C(=O)/C=C/c2cccnc2)CC1 [Example 34-17, 1-{4-(cyanomethyl)-1-[(2E)-3-pyridin-3-ylprop-2-enoyl]piperidin-4-yl}-3-(phenylamino)-1H-pyrazole-4-carboxamide]
2 nM	0.09 nM	N#CCC1(n2cc(C(N)=O)c(Nc3ccnc(F)c3)n2)CCC(NCc2ccc(F)cc2F)CC1 (stereo not drawn) [Example 41-4, Cis or trans 1-{1-(cyanomethyl)-4-[(2,4-difluorobenzyl)amino]cyclohexyl}-3-[(2-fluoropyridin-4-yl)amino]-1H-pyrazole-4-carboxamide]
0.5 nM	0.03 nM	Cn1cc(-c2ccc(Nc3nn(C4(CC#N)CCN(C(=O)OCC(F)(F)F)CC4)cc3C(N)=O)cn2)cn1 [Example 11-1, 2,2,2-Trifluoroethyl 4-(4-carbamoyl-3-{[6-(1-methyl-1H-pyrazol-4-yl)pyridin-3-yl]amino}-1H-pyrazol-1-yl)-4-(cyanomethyl)piperidine-1-carboxylate]
54 nM	1 nM	N#CCC1(n2cc(C(N)=O)c(Nc3ccc(F)cc3)n2)CCN(c2cncc(C(F)(F)F)c2)CC1 [Example 3-8, 1-{4-(cyanomethyl)-1-[5-(trifluoromethyl)pyridin-3-yl]piperidin-4-yl}-3-[(4-fluorophenyl)amino]-1H-pyrazole-4-carboxamide]
0.2 nM	0.05 nM	CC(C)(C)OC(=O)N1CC[C@](CC#N)(n2cc(C(N)=O)c(Nc3ccc(F)cc3)n2)[C@H](F)C1 (racemic) [Example 6-4, tert-butyl (3S,4S and 3R,4R)-4-{4-carbamoyl-3-[(4-fluorophenyl)amino]-1H-pyrazol-1-yl}-4-(cyanomethyl)-3-fluoropiperidine-1-carboxylate]
39 nM	3 nM	N#CCC1(n2cc(C(N)=O)c(Nc3ccc(F)cc3)n2)CCN(c2cccc(CF)n2)CC1 [Example 3-50, 1-{4-(cyanomethyl)-1-[6-(fluoromethyl)pyridin-2-yl]piperidin-4-yl}-3-[(4-fluorophenyl)amino]-1H-pyrazole-4-carboxamide]
6 nM	0.3 nM	COCCOC(=O)N1CCC(CC#N)(n2cc(C(N)=O)c(Nc3ccc(S(=O)(=O)C(F)(F)F)cc3)n2)CC1 [Example 27-2, 2-methoxyethyl 4-(4-carbamoyl-3-(4-(trifluoromethylsulfonyl)phenylamino)-1H-pyrazol-1-yl)-4-(cyanomethyl)piperidine-1-carboxylate]
22 nM	0.5 nM	CS(=O)(=O)CC(=O)N1CCC(CC#N)(n2cc(C(N)=O)c(Nc3ccnc(F)c3)n2)CC1 [Example 34-58, 1-{4-(cyanomethyl)-1-[(methylsulfonyl)acetyl]piperidin-4-yl}-3-[(2-fluoropyridin-4-yl)amino]-1H-pyrazole-4-carboxamide]
70 nM	6 nM	N#CCC1(n2cc(C(N)=O)c(Nc3ccnc(F)c3)n2)CCN(Cc2cn[nH]c2)CC1 [Example 22-5, 1-[4-(cyanomethyl)-1-(1H-pyrazol-4-ylmethyl)piperidin-4-yl]-3-[(2-fluoropyridin-4-yl)amino]-1H-pyrazole-4-carboxamide]
2 nM	0.03 nM	N#CCC1(n2cc(C(N)=O)c(Nc3ccnc(F)c3)n2)CCC(NCc2ccccc2Cl)CC1 (stereo not drawn) [Example 41-10, Cis or trans 1-{4-[(2-chlorobenzyl)amino]-1-(cyanomethyl)cyclohexyl}-3-[(2-fluoropyridin-4-yl)amino]-1H-pyrazole-4-carboxamide]
37 nM	1 nM	N#CCC1(n2cc(C(N)=O)c(Nc3ccc(F)cc3)n2)CCN(c2ccc(C(O)C(F)(F)F)cc2)CC1 (stereo not drawn) [Example 3-9, 1-{4-(cyanomethyl)-1-[4-(2,2,2-trifluoro-1-hydroxyethyl)phenyl]piperidin-4-yl}-3-[(4-fluorophenyl)amino]-1H-pyrazole-4-carboxamide]
115 nM	8 nM	CC1(C(=O)N2CCC(CC#N)(n3cc(C(N)=O)c(Nc4ccnc(F)c4)n3)CC2)CCC1 [Example 34-60, 1-{4-(cyanomethyl)-1-[(1-methylcyclobutyl)carbonyl]piperidin-4-yl}-3-[(2-fluoropyridin-4-yl)amino]-1H-pyrazole-4-carboxamide]
48 nM	7 nM	N#CCC1(n2cc(C(N)=O)c(Nc3ccc(F)cc3)n2)CCC2(CC1)OCCO2 [Example 6-6, 1-[8-(cyanomethyl)-1,4-dioxaspiro[4.5]dec-8-yl]-3-[(4-fluorophenyl)amino]-1H-pyrazole-4-carboxamide]
7 nM	0.2 nM	N#CCC1(n2cc(C(N)=O)c(Nc3ccnc(F)c3)n2)CCC(Nc2ccccc2Cl)CC1 (stereo not drawn) [Example 40-11, Cis or trans 1-{4-[(2-chlorophenyl)amino]-1-(cyanomethyl)cyclohexyl}-3-[(2-fluoropyridin-4-yl)amino]-1H-pyrazole-4-carboxamide]
35 nM	3 nM	N#CCC1(n2cc(C(N)=O)c(Nc3cncc(F)c3)n2)CCN(C(=O)CC(F)(F)F)CC1 [Example 35-3, 1-(4-(cyanomethyl)-1-(3,3,3-trifluoropropanoyl)piperidin-4-yl)-3-(5-fluoropyridin-3-ylamino)-1H-pyrazole-4-carboxamide]
3 nM	0.2 nM	N#CCC1(n2cc(C(N)=O)c(Nc3ccc(F)cc3)n2)CCN(c2ccc(C#N)cc2)CC1 [Example 3-26, 1-[4-(cyanomethyl)-1-(4-cyanophenyl)piperidin-4-yl]-3-[(4-fluorophenyl)amino]-1H-pyrazole-4-carboxamide]
88 nM	4 nM	N#CCC1(n2cc(C(N)=O)c(Nc3ccccc3)n2)CCN(C(=O)OCc2cccc(F)c2)CC1 [Example 30-32, 3-fluorobenzyl 4-[4-carbamoyl-3-(phenylamino)-1H-pyrazol-1-yl]-4-(cyanomethyl)piperidine-1-carboxylate]
50 nM	1 nM	N#CCC1(n2cc(C(N)=O)c(Nc3ccccc3)n2)CCN(C(=O)OC2CCCC2)CC1 [Example 30-30, cyclopentyl 4-[4-carbamoyl-3-(phenylamino)-1H-pyrazol-1-yl]-4-(cyanomethyl)piperidine-1-carboxylate]
711 nM	153 nM	N#CCC1(n2cc(C(N)=O)c(Nc3ccccc3)n2)CCN(C(=O)C(c2ccccc2)c2ccccc2)CC1 [Example 34-33, 1-[4-(cyanomethyl)-1-(diphenylacetyl)piperidin-4-yl]-3-(phenylamino)-1H-pyrazole-4-carboxamide]
44 nM	1 nM	Cc1ccnc(N2CCC(CC#N)(n3cc(C(N)=O)c(Nc4ccc(F)cc4)n3)CC2)c1 [Example 3-31, 1-[4-(cyanomethyl)-1-(4-methylpyridin-2-yl)piperidin-4-yl]-3-[(4-fluorophenyl)amino]-1H-pyrazole-4-carboxamide]
27 nM	2 nM	CC(C)(C)OC(=O)N1CCC(CC#N)(n2cc(C(N)=O)c(Nc3ccccc3)n2)C1 (stereo not drawn) [Example 2-17, tert-butyl 3-[4-carbamoyl-3-(phenylamino)-1H-pyrazol-1-yl]-3-(cyanomethyl)pyrrolidine-1-carboxylate]
453 nM	39 nM	Cc1ccc(CN2CCC(CC#N)(n3cc(C(N)=O)c(Nc4ccccc4)n3)CC2)cc1C [Example 21-28, 1-[4-(cyanomethyl)-1-(3,4-dimethylbenzyl)piperidin-4-yl]-3-(phenylamino)-1H-pyrazole-4-carboxamide]
318 nM	20 nM	N#CCC1(n2cc(C(N)=O)c(Nc3ccccc3)n2)CCN(C(=O)c2ccncc2)CC1 [Example 34-10, 1-[4-(cyanomethyl)-1-(pyridin-4-ylcarbonyl)piperidin-4-yl]-3-(phenylamino)-1H-pyrazole-4-carboxamide]
3 nM	0.2 nM	CC(C)(C)OC(=O)N1CCC(CC#N)(n2cc(C(N)=O)c(Nc3ccnc(N)c3)n2)CC1 [Example 9-14, tert-butyl 4-{3-[(2-aminopyridin-4-yl)amino]-4-carbamoyl-1H-pyrazol-1-yl}-4-(cyanomethyl)piperidine-1-carboxylate]
0.1 nM	0.03 nM	N#CC[C@@]1(n2cc(C(N)=O)c(Nc3ccnc(F)c3)n2)CCN(C(=O)OCC(F)F)C[C@@H]1F [Example 46]
1 nM	0.1 nM	CC(C)(C)OC(=O)N1CCC(CC#N)(n2cc(C(N)=O)c(Nc3ccc(S(C)(=O)=O)cc3)n2)CC1 [Example 4-1, tert-Butyl 4-(4-carbamoyl-3-{[4-(methylsulfonyl)phenyl]amino}-1H-pyrazol-1-yl)-4-(cyanomethyl)piperidine-1-carboxylate]
7 nM	0.2 nM	N#CCC1(n2cc(C(N)=O)c(Nc3ccc(F)cc3)n2)CCC(Nc2ccccc2F)CC1 (stereo not drawn) [Example 40-58, Cis or trans 1-{1-(cyanomethyl)-4-[(2-fluorophenyl)amino]cyclohexyl}-3-[(4-fluorophenyl)amino]-1H-pyrazole-4-carboxamide]

Source: patent publication US9328099B2, “Cyanomethylpyrazole carboxamides as janus kinase inhibitors” (Merck Sharp & Dohme Corp., priority 2011, dated 2016)
